Measurements from patent US7989478B2, “Cinnamoyl compound and use of the same” (Sumitomo Chemical Company, Limited, priority 2003, dated 2011).

Tested on: mRNA of Type I collagen gene in renal glomerulus
Experiment: mRNA of Type I collagen gene in renal glomerulus of anti-Thy-1 antibody-administered rats (improvement of chronic renal failure)
Assay type: in vivo, rat
Settings: for ability to improve chronic renal failure: anti-Thy-1 antibody rats; for mRNA of collagen gene: Type I collagen amount/GAPDH amount, renal cortex, anti-Thy-1 antibody +
Procedure: IgG was purified from an ascites-lyophilized powder (CEDARLANE, lot No. 05122) containing an anti-rat CD90 (Thy1.1) monoclonal antibody using MAbTrap kit (Amersham Biosciences, catalogue No. 17-1128-01).
6 ml of a binding buffer was added to 3 ml of ascites to sufficiently recover it, and this was passed through a 0.22 μm filter. The resulting solution was applied to a pre-bufferized column, and the column was then washed with 10 ml of a binding buffer. Thereafter, the column was eluted with 5 ml of an elution buffer. From washing, each 1 ml was fractionated, and the protein concentration of each fraction was measured using bovine serum albumin as a standard. A single peak was confirmed from an elution pattern, and an IgG fraction was dialyzed against a physiological saline overnight at 4° C. The protein concentration of the resulting anti-Thy-1 antibody (IgG) was calculated.
The present compounds represented by the compound numbers (28a) (hereinafter, referred to as the present compound (28a)), the present compound represented by a compound number (30a) (hereinafter, referred to as the present compound (30a)), the present compound represented by a compound number (33a) (hereinafter, referred to as the present compound (33a)), the present compound represented by a compound number (10e) (hereinafter, referred to as the present compound (10e)), the present compound represented by a compound number (18e) (hereinafter referred to as the present compound (18e)), the present compound represented by a compound number (31e) (hereinafter, referred to as the present compound (31e)) and a corn oil which is a medium were weighed. These were mixed using a mortar and a pestle to prepare a […]. Using four 7-week old male Wistar rats [Nippon Charles River] per group, 60 μg/ml of the anti-Thy-1 antibody (IgG) or a physiological saline was intravenously injected via a tail vein at 5 ml/kg. […] A dose of the present compound was 15 mg/kg/day.
On the next day of final administration, a rat reared as described in the above (2) was slaughtered by collection of whole blood, and kidneys were isolated. A whole RNA was separated from the cortex of the isolated kidney using RNeasy Mini Kit (QIAGEN, catalogue No. 74106). To 5 μl (50 ng) of the separated whole RNA were added 1 μl of 20 μM oligo dT and 4 μl of RNase-free distilled water. After the mixture was incubated at 65° C. for 5 minutes, it was immediately ice-cooled. To 10 μl of the solution were added 4 μl of 5× buffer, 2.4 μl of MgCl2, 1 μl of 10 mM dNTP, 1 μl of RNasin, 1 μl of Improm II and 0.6 μl of RNase-free distilled water (all available from Promega), and a reverse transcription reaction was performed under the condition of at 25° C. for 5 minutes, at 42° C. for 1 hour, and at 70° C. for 15 minutes.
Into 5 μl of the reverse transcription reaction solution were mixed each 2 μl of each 1.25 pmol/μl of primers represented by SEQ ID NOS: 3 and 4, 1.25 μl of a probe (FAM-ctcgccttca tgcgcctgct agc-TAMRA) for detecting DNA of a Type I collagen gene represented by SEQ ID No:5, each 0.25 μl of Rodent GAPDH primers, 0.25 μl of a Rodent GAPDH probe, 12.5 μl of TaqMan Universal PCR Master Mix (all available from Applied Biosystem) and 1.5 μl of sterilized water in a well of Optical 96-Well Reaction Plate (Applied Biosystem, catalogue No. N801-0560). As a standard, in place of 5 μl of the reverse transcription reaction solution, each 5 μl of 500, 250, 125, 62.5, 31.25, 15.625 ng/μl rat renal cortex cDNA which had been prepared in advance was used. Thereafter, using Gene Amp 7900 (Applied Biosystem), PCR was performed under the condition of at 50° C. for 5 minutes, and 40 cycles in which one cycle is at 95° C. for 15 seconds and at 60° C. for 1 minute. […]

## Cc1cc(O)c(C(=O)C=Cc2cccc(OCC(=O)O)c2)c(=O)n1C [Compound No. (37a), 4-hydroxy-3-[3-[3-(carboxymethoxy)phenyl]-1-oxo-2-propenyl]-1,6-dimethyl-2(1H)-pyridinone]
Example 6, orally for 7 days in 0.5% aqueous methylcellulose solution
  ability to improve chronic renal failure: has the ability to improve chronic renal failure
Table 5 (Example 6), orally for 7 days in 0.5% aqueous methylcellulose solution, 10 Wistar rats per group, control group 2.1, normal group 1.0, test results p < 0.01
  mRNA of collagen gene: 1.5

## COC(=O)CNC(=O)c1ccc(C=CC(=O)c2c(O)cc(C)[nH]c2=O)cc1 [Compound No. (30a), 4-hydroxy-3-[3-[4-[[(methoxycarbonylmethyl)amino]carbonyl]phenyl]-1-oxo-2-propenyl]-6-methyl-2(1H)-pyridinone]
Example 5, 15 mg/kg/day orally for 7 days in corn oil
  ability to improve chronic renal failure: have the ability to improve chronic renal failure
Table 3, 15 mg/kg/day orally for 7 days in corn oil, Wistar rats, control group 3.4, normal group 1.9, test results p < 0.05
  mRNA of collagen gene: 2.4
